Data reported in patent US20240409519A1, “HYDROGENATED QUINOXALINES” (OTSUKA PHARMACEUTICAL CO., LTD., priority 2021, published 2024).

How the values were obtained:
Assay type in all cases: in vitro ADME
CYP2D6 = molecular target: T1, CYP2D6 (Homo sapiens, UniProt P10635); test: CYP inhibition test (2): 50% inhibitory concentration from 3 concentrations, CYP2D6; conditions: human liver microsome, bufuralol substrate, 0.01, 0.03 and 0.1 mmol/L; read-out: 50% inhibitory concentration, 2D6
T1 construct: a human liver microsome solution containing three CYP-specific substrates; from tissue; host or cells: human liver microsomes
T1 sequence (P10635 whole entry): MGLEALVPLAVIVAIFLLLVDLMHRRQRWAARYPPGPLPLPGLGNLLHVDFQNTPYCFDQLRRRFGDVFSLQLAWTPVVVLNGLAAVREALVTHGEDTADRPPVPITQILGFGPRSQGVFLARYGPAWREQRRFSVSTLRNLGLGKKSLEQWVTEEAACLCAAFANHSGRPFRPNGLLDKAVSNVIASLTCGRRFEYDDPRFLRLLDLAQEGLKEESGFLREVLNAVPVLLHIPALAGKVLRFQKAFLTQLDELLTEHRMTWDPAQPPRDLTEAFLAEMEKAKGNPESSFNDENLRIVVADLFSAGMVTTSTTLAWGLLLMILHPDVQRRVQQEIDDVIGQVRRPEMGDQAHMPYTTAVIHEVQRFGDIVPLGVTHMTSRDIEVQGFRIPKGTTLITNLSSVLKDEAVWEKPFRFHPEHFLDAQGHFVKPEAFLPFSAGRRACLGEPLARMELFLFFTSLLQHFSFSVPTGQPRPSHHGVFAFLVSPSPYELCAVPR
Description: (§1) A metabolic reaction was initiated by adding and mixing a test compound solution (final concentration 0.01, 0.03 and 0.1 mmol/L) and a NADH/NADPH solution (final concentration 1 mmol/L) to a human liver microsome solution containing three CYP-specific substrates (final concentration 100 mmol/L potassium phosphate buffer solution (pH 7.4), 5 mmol/L magnesium chloride, 0.1 mg/mL human liver microsome, 0.005 mmol/L diclofenac (for CYP2C9), 0.01 mmol/L bufuralol (for CYP2D6), 0.005 mmol/L midazolam (for CYP3A4)). As an internal standard solution, a solution of each of stable isotopes of the metabolites (50 ng/mL [13C6] hydroxy diclofenac, 5 ng/mL [2H9] hydroxy bufuralol, and 5 ng/mL [13C6] hydroxy midazolam (all stable isotopes)) in methanol was prepared and used as a quenching solution. Specifically, a metabolic reaction was initiated by adding and mixing 2 μL of a solution of a test compound in acetonitrile (or acetonitrile as a control) to 178 μL of a human liver microsome solution in ice water, followed by preincubation at 37° C. for 1 minute, and then adding 20 μL of a NADH/NADPH solution thereto. After incubation at 37° C. for 10 minutes, 50 μL of the reaction mixture was taken, and then it was added and mixed to 500 μL of a quenching solution to quech the reaction. The mixture was centrifuged (6130 g, 4° C., 10 minutes) and the supernatant was used as a sample for LC-MS/MS. Peak area ratio ([peak area of metabolite]/[peak area of corresponding stable isotope]) was calculated for a metabolite and a stable isotope of the metabolite as measurement object. By comparing the peak area ratio of each test compound solution with that of the control, the inhibition rate (%) of each CYP species for each test compound was calculated from (1−[peak area ratio of each test compound solution]/[peak area ratio of control])×100.

CYP3A4 = molecular target: T2, CYP3A4 (Homo sapiens, UniProt P08684); test: CYP inhibition test (2): 50% inhibitory concentration from 3 concentrations, CYP3A4; conditions: human liver microsome, midazolam substrate, 0.01, 0.03 and 0.1 mmol/L; read-out: 50% inhibitory concentration, 3A4
T2 construct: a human liver microsome solution containing three CYP-specific substrates; from tissue; host or cells: human liver microsomes
T2 sequence (P08684 whole entry): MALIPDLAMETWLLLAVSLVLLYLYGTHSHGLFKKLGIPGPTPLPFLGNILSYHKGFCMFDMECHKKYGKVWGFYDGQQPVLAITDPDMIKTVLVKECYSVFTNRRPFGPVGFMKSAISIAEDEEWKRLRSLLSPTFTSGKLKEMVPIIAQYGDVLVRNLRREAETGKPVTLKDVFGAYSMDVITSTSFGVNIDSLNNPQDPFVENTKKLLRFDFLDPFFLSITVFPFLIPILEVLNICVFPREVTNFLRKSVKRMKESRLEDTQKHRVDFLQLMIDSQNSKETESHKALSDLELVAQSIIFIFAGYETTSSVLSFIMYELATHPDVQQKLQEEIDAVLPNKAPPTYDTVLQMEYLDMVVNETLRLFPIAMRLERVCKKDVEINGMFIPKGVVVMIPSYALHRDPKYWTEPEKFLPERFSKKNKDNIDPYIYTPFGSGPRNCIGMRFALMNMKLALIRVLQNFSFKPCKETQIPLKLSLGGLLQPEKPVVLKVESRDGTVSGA
Description: as §1

CYP2C9 = molecular target: T3, CYP2C9 (Homo sapiens, UniProt P11712); test: CYP inhibition test (2): 50% inhibitory concentration from 3 concentrations, CYP2C9; conditions: human liver microsome, diclofenac substrate, 0.01, 0.03 and 0.1 mmol/L, read-out: 50% inhibitory concentration, 2C9
T3 construct: a human liver microsome solution containing three CYP-specific substrates; from tissue; host or cells: human liver microsomes
T3 sequence (P11712 whole entry): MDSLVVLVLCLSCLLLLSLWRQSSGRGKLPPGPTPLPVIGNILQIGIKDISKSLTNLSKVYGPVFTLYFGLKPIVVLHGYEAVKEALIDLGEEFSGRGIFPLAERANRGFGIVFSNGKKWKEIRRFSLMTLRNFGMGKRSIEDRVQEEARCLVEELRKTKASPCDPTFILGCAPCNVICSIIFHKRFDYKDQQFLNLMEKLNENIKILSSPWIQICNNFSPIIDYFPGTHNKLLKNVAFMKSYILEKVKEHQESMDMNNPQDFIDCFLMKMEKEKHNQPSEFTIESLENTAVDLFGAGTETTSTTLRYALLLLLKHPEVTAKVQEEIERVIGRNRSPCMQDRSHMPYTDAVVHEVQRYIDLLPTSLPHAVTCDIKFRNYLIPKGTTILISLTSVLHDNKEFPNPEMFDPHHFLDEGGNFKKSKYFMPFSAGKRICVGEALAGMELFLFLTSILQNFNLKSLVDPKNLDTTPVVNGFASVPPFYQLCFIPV
Description: as §1

Work on `C[C@@H]1CN(c2cc(F)c(OCCO)c(Cl)c2)[C@H]2CCCC[C@@H]2N1` [Example 17, 2-(2-chloro-6-fluoro-4-((3R,4aS,8aS)-3-methyloctahydroquinoxalin-1(2H)-yl)phenoxy)ethan-1-ol 1/2fumarate] yielded an IC50 (CYP2D6) greater than 100 µM, an IC50 (CYP3A4) greater than 100 µM and an IC50 (CYP2C9) greater than 100 µM.

`C[C@H]1CN(c2cc(F)c(OCCO)c(Cl)c2)[C@H]2CCCC[C@H]2N1` [Example 18] showed an IC50 (CYP2D6) of 59.1 µM, an IC50 (CYP3A4) greater than 100 µM and an IC50 (CYP2C9) greater than 100 µM.

Work on `CC1(C)CN(c2ccc(OC(F)(F)CO)cc2)[C@H]2CCCC[C@@H]2N1` [Example 20, 2-(4-((4aS,8aS)-3,3-dimethyloctahydroquinoxalin-1(2H)-yl)phenoxy)-2,2-difluoroethan-1-ol] yielded an IC50 (CYP2D6) greater than 100 µM, an IC50 (CYP3A4) of 94.9 µM and an IC50 (CYP2C9) greater than 100 µM.

Molecule `CC1(C)CN(c2ccc(OC(F)(F)CO)cc2)[C@@H]2CCCC[C@H]2N1` [Example 21] has an IC50 (CYP2D6) greater than 100 µM, an IC50 (CYP3A4) greater than 100 µM and an IC50 (CYP2C9) greater than 100 µM.

`COc1cc(N2CC(C)(C)N[C@H]3CCCC[C@@H]32)ccc1OC(F)(F)CO` [Example 26] was tested, and the IC50 (CYP2D6) was greater than 100 µM, the IC50 (CYP3A4) was greater than 100 µM and the IC50 (CYP2C9) was greater than 100 µM.

For `CC1(C)CN(c2ccc(OCCO)c(Cl)c2)[C@H]2CCCC[C@@H]2N1` [Example 27, 2-(2-chloro-4-((4aS,8aS)-3,3-dimethyloctahydroquinoxalin-1(2H)-yl)phenoxy)ethan-1-ol], the IC50 (CYP2D6) was greater than 100 µM, the IC50 (CYP3A4) was greater than 100 µM and the IC50 (CYP2C9) was greater than 100 µM.

`CC1(C)CN(c2ccc(OCCO)c(Cl)c2)[C@@H]2CCCC[C@H]2N1` [Example 28] showed an IC50 (CYP2D6) greater than 100 µM, an IC50 (CYP3A4) greater than 100 µM and an IC50 (CYP2C9) greater than 100 µM.

Molecule `Cc1cc(N2CC(C)(C)N[C@H]3CCCC[C@@H]32)ccc1OC(F)(F)CO` [Example 31] has an IC50 (CYP2D6) greater than 100 µM, an IC50 (CYP3A4) of 62.5 µM and an IC50 (CYP2C9) greater than 100 µM.

Work on `Cc1cc(N2CC(C)(C)N[C@@H]3CCCC[C@H]32)ccc1OC(F)(F)CO` [Example 32] yielded an IC50 (CYP2D6) greater than 100 µM, an IC50 (CYP3A4) of 62.8 µM and an IC50 (CYP2C9) greater than 100 µM.

`CC1(C)CN(c2cc(F)c(OCCO)c(F)c2)[C@H]2CCCC[C@@H]2N1` [Example 34, 2-(4-((4aS,8aS)-3,3-dimethyloctahydroquinoxalin-1(2H)-yl)-2,6-difluorophenoxy)ethan-1-ol] gave an IC50 (CYP2D6) greater than 100 µM, an IC50 (CYP3A4) greater than 100 µM and an IC50 (CYP2C9) greater than 100 µM.

With `CC1(C)CN(c2cc(F)c(OCCO)c(F)c2)[C@@H]2CCCC[C@H]2N1` [Example 35] the IC50 (CYP2D6) was 55.5 µM, the IC50 (CYP3A4) was greater than 100 µM and the IC50 (CYP2C9) was greater than 100 µM.

For `CC1(C)CN(c2cc(F)c(OCCO)c(F)c2)[C@H]2CCCC[C@H]2N1` [Example 36], the IC50 (CYP2D6) was 87.6 µM, the IC50 (CYP3A4) was greater than 100 µM and the IC50 at 10 min (CYP2C9; human liver microsomes, pH 7.4, probe diclofenac (0.005 mmol/L)) was 100 µM.

For `CN1[C@H]2CCCC[C@@H]2N(c2ccc(OC(F)(F)CO)cc2)CC1(C)C` [Example 37, 2,2-difluoro-2-(4-((4aS,8aS)-3,3,4-trimethyloctahydroquinoxalin-1(2H)-yl)phenoxy)ethan-1-ol], the IC50 (CYP2D6) was greater than 100 µM, the IC50 (CYP3A4) was 86.7 µM and the IC50 (CYP2C9) was greater than 100 µM.
